Reference: US8450280B2, “Activation of peptide prodrugs by hK2” (GenbSpera, Inc., priority 1999, dated 2013)
Read-outs that look alike come from different tables or passages of the source. Blank lines part the entries; values can stand above or below the molecule they belong to. Non-standard residues stand in square brackets, D forms with d. Residues, ends and D or L forms follow the SMILES beside them. *: point of attachment. AMC = Cc1cc(=O)oc2cc(N*)ccc12; Tos = Cc1ccc(S(=O)(=O)*)cc1; Cbz = O=C(OCc1ccccc1)*; Boc = CC(C)(C)OC(=O)*

Experiments:
hK2 [1] = biological target: T1, hK2 (Homo sapiens, UniProt P20151); assay: Kinetic constants of AMC substrate hydrolysis by hK2; format: biochemical; design: key to Kcat: The entry “NR” means that no reaction was detected; conditions: for Activity (%): hydrolytic activity of hK2 in relation to H-Pro-Phe-Arg-AMC: 100 μM substrate; for Kcat: 50 mM Tris pH 7.5, 0.1 M NaCl, 0.2% BSA, 37° C., Lineweaver-Burk, NR = no reaction detected
T1 construct: made in house
T1 sequence (P20151 25-261): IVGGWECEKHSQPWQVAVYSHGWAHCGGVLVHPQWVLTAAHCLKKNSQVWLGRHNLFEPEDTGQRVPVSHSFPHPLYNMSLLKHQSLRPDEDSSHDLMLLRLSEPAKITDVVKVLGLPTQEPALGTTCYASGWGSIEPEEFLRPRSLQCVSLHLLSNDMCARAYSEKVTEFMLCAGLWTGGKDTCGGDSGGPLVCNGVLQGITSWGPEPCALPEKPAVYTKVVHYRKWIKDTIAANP
Experimental: The measurements were done with Fluoroscan II (Labsystems, Helsinki, Finland) using a 355 nm excitation filter and a 460 nm emission filter. The fluorescence of 7-amino-4-methylcoumarin (AMC) (Sigma, St. Louis, Mo., USA) was determined to be 700 FIU/nmol and this value was used in the calculations of the rate of product formation. Unless otherwise indicated all final analyses were performed in 200 μl of the buffer 50 mM Tris pH 7.5, 0.1 M NaCl, and 0.2% BSA at 37° C. using 1.6 pmol hK2. BSA was added to the reaction mixture in order to minimize adsorption of the enzyme to the walls of the microtiter wells. The amount of hK2 was quantified by a commercial PSA immunoassay (Prostatus, Wallac, Turku, Finland) with the Mabs H1 17 and H50 which recognize PSA and hK2 equally well (Lovgren et al., Biochem. Biophys. Res. Co., 213, 888-895 (1995)). Under the conditions described, 1.6 pmol of the hK2 preparation cleaved 50 pmol/min of the 100 μM substrate Pro-Phe-Arg-AMC (SEQ ID NO: 55). During the 20 minute measurement time the consumption of the substrates is <7% of their total amount and was not considered to affect the reaction rate. Initial analysis of the substrates were performed with 3.2 pmol hK2 at a substrate concentration of 250 μM. Km value for the substrates cleaved by hK2 at these conditions were determined using at least four substrate concentrations ranging from 0.2×Km to 5×Km. The Km and kcat values were calculated from Lineweaver-Burk plots.
Substrates ending in either arginine or lysine were tested. […] However, no hydrolysis of Arg-Gln-Arg-Arg-AMC (SEQ ID NO: 63) was detected. […] As with the semenogelins, hK2 also here cleaves substrates with Arg at position P1 and preferentially a large residue or another Arg at position P2. None of the substrates with lysine in the C-terminal position were cleaved.
The activity listed in Table 1 is hydrolytic activity of hK2 with 100 μM substrate in relation to the hydrolytic activity of hK2 with 100 μM of the tissue kallikrein substrate H-Pro-Phe-Arg-AMC (SEQ ID NO: 55). The entry “NR” means that no reaction was detected.

[2] = biological target: sarcoplasmic reticulum (SR) and endoplasmic reticulum (ER) Ca^2+-ATPase (SERCA) pump; conditions: read-out: apparent dissociation constant; cited from earlier work
hK2 [3] = biological target: T1, hK2; assay: Kinetic analysis of hK2 inhibition by zinc; format: biochemical; conditions: for Ki: two bound zinc ions model, best fit, substrates Pro-Phe-Arg-AMC and Ala-Arg-Arg-AMC, no BSA
Experimental: Since BSA contains several binding sites for Zn^2+, it could not be used in the kinetics buffer during zinc inhibition experiments. The binding of hK2 to the microtiter well walls caused a constant decrease in the reaction rate, which was however similar to all zinc concentrations. The velocities were calculated from a five-minute measurement time after mixing of the enzymes with the buffer containing substrate and zinc.
The inhibition of hK2 by zinc was first tested against competitive, uncompetitive, mixed, non-competitive, and partial non-competitive inhibitor models using commonly used formulas described for the respective inhibition models. […] The Dixon plots ([Zn^2+]/v) for the inhibition were not linear. However, at low zinc ion concentrations the inhibition pattern looked competitive. The inhibition mechanism is clearly more complex than the ones described by the formulas used. Further analysis of the inhibition mechanism was done by deriving the rate equations for various more complex mechanisms and analyzing the data by least-squares best-fit systems. The possible mechanism required two bound zinc ions, and is presented by Scheme 1.
[formula] where the concentration of free enzyme e is the total enzyme concentration divided by the sum of a) {(the zinc concentration divided by Ki1) times (the zinc concentration divided by Ki2)} and b) {(the zinc concentration divided by Ki1) plus 1} times {(the substrate concentration divided by Ks) plus 1}.
The equation fitted the experimental data quite satisfactorily. The constant values were Ki1=4.6+/−3.9 μM, Ki2=3.2+/−0.7 μM, and k=k′.

hK2 [4] = biological target: T1, hK2; assay: Inhibition of hK2 by protease inhibitors (substrate H-Pro-Phe-Arg-AMC); format: biochemical; conditions: for inhibition of hK2 (in words): 8 nM hK2, 90 μM substrate; for Activity (%) of hK2, percentage of inhibitor-free control: 10 minutes of incubation, 8.3 nM hK2, 90 μM substrate
Experimental: Activity of hK2 (1.6 pmol) was monitored using the substrate H-Pro-Phe-Arg-AMC (SEQ ID NO: 55) (90 μM). Inhibitors, at commonly used concentrations, and hK2 (8.3 nM) were mixed and proteolysis of 90 μM H-Pro-Phe-Arg-AMC (SEQ ID NO: 55) was followed up to 20 minutes, starting directly or 10 minutes after mixing the enzyme with various inhibitors. Inhibition was evaluated by comparison with […] controls.
The proteolytic activity is expressed in percentage of inhibitor-free control after 10 minutes of incubation.
Therefore, PPACK can be used to obtain fast irreversible inhibition of hK2.

hK2 [5] = biological target: T1, hK2; assay: Effect of heparin on hK2 activity (Km and kcat of substrate); format: biochemical; conditions: heparin 10^−4 to 10^−7 M; data not shown
Text: The increase had no significant effect on the calculation of the constants.

hydrolysis by hK2 (in words) (hK2 [1]): cleaved quite effectively | Activity (%): hydrolytic activity of hK2 in relation to H-Pro-Phe-Arg-AMC (hK2 [1]): 33%
Molecule: Cc1cc(=O)oc2cc(NC(=O)[C@H](CCCNC(=N)N)NC(=O)[C@H](CCCNC(=N)N)NC(=O)[C@H](C)NC(=O)OCc3ccccc3)ccc12 [Ala Arg Arg-AMC, Z-Ala-Arg-Arg-AMC] (Cbz-Ala-Arg-Arg-{AMC})

Molecule: Cc1cc(=O)oc2cc(NC(=O)[C@H](CCCNC(=N)N)NC(=O)[C@H](CCCNC(=N)N)NC(=O)[C@H](CCC(N)=O)NC(=O)[C@@H](N)CCCNC(=N)N)ccc12 [Arg Gln Arg Arg-AMC, H-Arg-Gln-Arg-Arg-AMC] (H-RQRR-{AMC})
hydrolysis by hK2 (in words) (hK2 [1]): no hydrolysis | Kcat (hK2 [1]): NR

Kcat (hK2 [1]): NR
Molecule: Cc1cc(=O)oc2cc(NC(=O)[C@H](CCCNC(=N)N)NC(=O)CNC(=O)[C@H](CCC(N)=O)NC(=O)OC(C)(C)C)ccc12 [Gln Gly Arg-AMC, Boc-Gln-Gly-Arg-AMC] (Boc-Gln-Gly-Arg-{AMC})

Kcat (hK2 [1]): NR
Molecule: Cc1ccc(S(=O)(=O)NCC(=O)N2CCC[C@H]2C(=O)N[C@@H](CCCNC(=N)N)C(=O)Nc2ccc3c(C)cc(=O)oc3c2)cc1 [Gly Pro Arg-AMC, Tos-Gly-Pro-Arg-AMC] (Tos-Gly-Pro-Arg-{AMC})

Molecule: Cc1ccc(S(=O)(=O)NCC(=O)N2CCC[C@H]2C(=O)N[C@@H](CCCCN)C(=O)Nc2ccc3c(C)cc(=O)oc3c2)cc1 [Gly Pro Lys-AMC, Tos-Gly-Pro-Lys-AMC] (Tos-Gly-Pro-Lys-{AMC})
Kcat (hK2 [1]): NR

hydrolysis by hK2 (in words) (hK2 [1]): with lower efficiency | Activity (%): hydrolytic activity of hK2 in relation to H-Pro-Phe-Arg-AMC (hK2 [1]): 7%
Molecule: Cc1cc(=O)oc2cc(NC(=O)[C@H](CCCNC(=N)N)NC(=O)[C@H](CC(C)C)NC(=O)[C@H](CC(C)C)NC(=O)OCc3ccccc3)ccc12 [Leu Leu Arg-AMC, Z-Leu-Leu-Arg-AMC]

Molecule: Cc1cc(=O)oc2cc(NC(=O)[C@H](CCCNC(=N)N)NC(=O)[C@H](CO)NC(=O)[C@H](Cc3ccccc3)NC(=O)OC(C)(C)C)ccc12 [Phe Ser Arg-AMC, Boc-Phe-Ser-Arg-AMC] (Boc-Phe-Ser-Arg-{AMC})
Kcat (hK2 [1]): NR

hydrolysis by hK2 (in words) (hK2 [1]): best substrate | rate of substrate cleavage by hK2 preparation (hK2 [1]; 1.6 pmol hK2, 100 μM substrate, pH 7.5, 37° C.): 50 pmol/min | Activity (%): hydrolytic activity of hK2 in relation to H-Pro-Phe-Arg-AMC (hK2 [1]): 100%
Molecule: Cc1cc(=O)oc2cc(NC(=O)[C@H](CCCNC(=N)N)NC(=O)[C@H](Cc3ccccc3)NC(=O)[C@@H]3CCCN3)ccc12 [Pro Phe Arg-AMC, H-Pro-Phe-Arg-AMC] (H-Pro-Phe-Arg-{AMC})

Molecule: C/C=C(/C)C(=O)O[C@H]1C(C)=C2[C@H]([C@@H]1OC(=O)CCCCCCC)[C@@](C)(OC(C)=O)C[C@H](OC(=O)CCC)[C@@]1(O)[C@H]2OC(=O)[C@@]1(C)O [TG, Thapsigargin]
Kd [2]: ≤ 2.2 pM

Molecule: Cc1cc(=O)oc2cc(NC(=O)[C@H](CCCCN)NC(=O)[C@H](CC(C)C)NC(=O)[C@H](N)C(C)C)ccc12 [Val Leu Lys-AMC, H-D-Val-Leu-Lys-AMC] (H-[dV]-Leu-Lys-{AMC})
Kcat (hK2 [1]): NR

hydrolysis by hK2 (in words) (hK2 [1]): with lower efficiency | Activity (%): hydrolytic activity of hK2 in relation to H-Pro-Phe-Arg-AMC (hK2 [1]): 6%
Molecule: Cc1cc(=O)oc2cc(NC(=O)[C@H](CCCNC(=N)N)NC(=O)[C@@H]3CCCN3C(=O)[C@@H](NC(=O)OC(C)(C)C)C(C)C)ccc12 [Val Pro Arg-AMC, boc-Val-Pro-Arg-AMC] (Boc-Val-Pro-Arg-{AMC})

Molecule: Cc1cc(=O)oc2cc(NC(=O)[C@H](CCCNC(=N)N)NC(=O)[C@@H](NC(=O)[C@@H](NC(=O)OCc3ccccc3)C(C)C)C(C)C)ccc12 [Val Val Arg-AMC, Z-Val-Val-Arg-AMC] (Cbz-Val-Val-Arg-{AMC})
Kcat (hK2 [1]): NR

Molecule: [Cl-].[Cl-].[Zn+2] [ZnCl2]
effect on Km and Vmax of hK2 (hK2 [3]): increased the Km and decreased the Vmax | reversal of hK2 inhibition by addition of EDTA (hK2 [3]): totally reversed | Ki (hK2 [3]; read-out: Ki1): 4.6 µM | Ki (hK2 [3]; read-out: Ki2): 3.2 µM | inhibition of hK2 (in words) (hK2 [4]): effectively inhibits hK2 | Activity (%) of hK2, percentage of inhibitor-free control (hK2 [4]; inhibitor 100 μM): 10% | Activity (%) of hK2, percentage of inhibitor-free control (hK2 [4]; inhibitor 200 μM): 1.2%

Molecule: PSTI: protease inhibitor present in the prostate (DSLGREAKCYNELNGCTKIYDPVCGTDGNTYPNECVLCFENRKRQTSILIQKSGPC)
inhibition of hK2 (in words) (hK2 [4]): inhibited hK2 weakly | Activity (%) of hK2, percentage of inhibitor-free control (hK2 [4]; inhibitor 0.08 μM): 100% | Activity (%) of hK2, percentage of inhibitor-free control (hK2 [4]; inhibitor 4 μM): 89%

Molecule: heparin
effect on Km of the substrate (hK2 [5]): slightly increased
